Experimental data reported in publication PMC3293351, “Pharmacokinetics and Excretion Studies on CDRI-85/92, an Antiulcer Proton Pump Inhibitor” (Scientia Pharmaceutica, 2011).
Values joined by “and” are separate entries in the source; they are usually repeats but may differ in a detail not shown here. Equal values may be shown once. Read-outs that look alike come from different tables or passages of the source. Each block holds one compound with its values, some of them ahead of it.

Assays:
[1] = system: proton pumps of the kidney and bone; set-up: method as in PMID 17045703; settings: cited from earlier work
[2] = method not specified; cited from earlier work
[3] = system: glutathione-S-transferases; set-up: method as in PMID 15283303; settings: formation of trans-isoform; cited from earlier work
free acidity = settings: compared with Omeprazole; cited from earlier work
gastric proton pump = settings: cited from earlier work
[4] = set-up: method as in PMID 12711165; settings: alike at acidic and basic pHs; cited from earlier work
[5] = Urinary, fecal and biliary excretion after 20 mg/kg oral and intravenous dose; format: in vivo, Sprague Dawley rats; settings: for k el: Sprague Dawley, rat; for Excreted in urine, % of the dose: intravenously treated rats, bile duct cannulated as well as noncannulated
Protocol: Urinary, fecal and biliary excretion of CDRI-85/92 was studied in rats (n=3 per group) after a single 20 mg/kg oral and intravenous dose. Following treatment with CDRI-85/92, urine and feces samples were collected during 24 h with 12 h intervals. Urine was measured and kept in parafilm sealed tubes at −60°C till analyses. Feces samples were dried at 37°C, weighed, ground to fine powder using mortar-pestle and stored in desiccator until analyses. Untreated rats were housed in metabolic cages with food and water ad libitum and their feces and urine collected to serve as blank samples for method development and validation.
For biliary excretion study, bile duct of the rats was surgically cannulated under light ether anesthesia. Rats were dosed with the solution formulation of CDRI-85/92 at 20 mg/kg orally or intravenously and placed in Bollman cages. Bile samples were collected in glass tubes at 0–12 and 12–24 h post dose. The volume of the samples were recorded and stored at −60°C until analyses.
The HPLC method described above was validated for estimation of CDRI-85/92 in urine and bile by assaying the spiked control samples in these biomatrics at three concentration levels (20, 50 and 100 ng/ml of the drug). To have a robust method, inter- and intra-day validation was also conducted (Table 2).
For the preparation of the spiked control feces samples, weighed (25 mg) quantities of drug-free powdered feces were transferred to different glass tubes, fortified with appropriated volume of working dilutions of CDRI-85/92 prepared in methanol, mixed by gentle tapping and allowed to stand at room temperature for drying. The blank, spiked or test samples were moistened with 0.2 ml of KH2PO4 buffer (20 mM, pH 3.0) followed by addition of 1.0 ml of acetonitrile for protein precipitation. The tubes were sealed with parafilm and allowed to stand at room temperature with frequent vortexing. Supernatant were processed as described above for serum samples. For each analytical run, a calibration curve was constructed using peak response against the concentration in calibration standards prepared in same biomatrix.
The amount, cumulative amount and % of the administered dose excreted via urine, bile and feces were calculated.

[6] = Partition coefficient (log P), 1-octanol/phosphate buffer; format: physicochemical; settings: 1-octanol/20 mM phosphate buffer; octanol partition, 20 mM phosphate buffer pH 7.4, 25°C
Protocol: Determination of log P was carried out according to the method of Said et al. (1996). 1-Octanol and 20 mM phosphate buffer (pH, 7.4) were mutually saturated for 6 h on magnetic stirrer and separated. A solution of the compound (1 mg/ml) was prepared in […]. Buffer (2 ml) and octanol containing CDRI-85/92 were placed in seven glass tubes and screw capped. These tubes were tumble-mixed for 2 h at 25°C at about 100 inversions/min. The organic and aqueous phases were separated by centrifugation at 2500 rev/min for 20 min. The concentration of the compound in aqueous and organic phase was determined by HPLC after a suitable dilution in mobile phase. The log P was calculated from the following equation:
Log P=logCoctanol/Cbuffer

[7] = Pharmacokinetics in serum after 20 mg/kg oral and intravenous doses; format: in vivo, Sprague Dawley rats
Protocol: As the first step of experiment, an aqueous solution formulation of the compound was administered intravenously to conscious rats via the caudal vein at a dose of 20 mg/kg in a volume of approximately 1.0 ml/kg/rat. Before the experiment, the tail was cleaned with luke warm water and the caudal vein was dilated using xylene. Blood (approx. 1.2 ml) was collected by cardiac puncture under light ether anesthesia at 0.08, 0.25, 0.5, 1, 2, 3, 4, 5, 6, 8, 12, 24 and 48 h post dose. In the second study, conscious rats, fasted overnight, were fed orally at a dose of 20 mg/kg in a volume of 2.0 ml/kg/rat. After drug delivery, blood was collected at the same time points used in the intravenous study. Three rats were utilized for each time point and not more than three or four (later in case of 48 hr) blood samples from each rat, two of which were by intracardiac during the absorption-distribution phase (till 5 hr) and one from the venecava in the terminal phase (6 hr onwards), was withdrawn. Together in two sets of studies, there were 24 rats. (Pl refer to Sampling schedule: Table 1). The total volume of the blood withdrawn within 24 h from cardiac puncture was less than 10% of the total blood volume. Blood was allowed to clot in sealed glass tubes and centrifuged at 2000 rpm. The serum was separated and stored at −60°C until analyses.
Serum concentrations of the compound were determined by HPLC method as described by Srivastava & Gupta (2002) with minor modification. Briefly, to 0.5 ml serum (blank, spiked or test) in 10 ml test tube 1.5 ml of acetonitrile was added and vortex-mixed for 15 sec. The tubes were kept in fridge for 30 min for complete protein precipitation, vortex-mixed for 1 min and centrifuged at 1000 × g for 10 min at 4°C. Supernatant (1.5 ml) was transferred to a 10 ml conical tube without disturbing the lower precipitate pellet and evaporated to dryness in Savant speed vac concentrator. The residue was reconstituted in 0.1 ml of mobile phase, centrifuged at 1000 × g for 10 min and the resulting solution was injected onto the HPLC system.
After oral dose, serum peak concentration (Cmax) and the time to reach peak concentration (Tmax) were derived directly from the original data. The serum concentration-time data from intravenous and oral dosed rats were fitted to WinNonlin programme (version 1.5) to calculate various pharmacokinetic parameters (like AUC, Cl and Vd). The bioavailability for oral dose was calculated using the following equation:
%Bioavailability=AUCoral×Doseiv/AUCiv×Doseoral×100

[8] = cited from earlier work
Aqueous solubility = format: physicochemical
[9] = log P from potentiometric titration; format: physicochemical; settings: aqueous solution titrated with 0.1 M NaOH
Protocol: where Coctanol and Cbuffer are the concentrations of the compound in octanol and buffer, respectively. Further, log P values {[…]} were also calculated after conducting potentiometric titration. It was carried out manually using a pH electrode and a variable volume pipette. A solution of the compound (1 mg/ml) was prepared in water and it was titrated with a 0.1 M NaOH solution, pH was measured simultaneously. The equivalence point (pKa- partition coefficient) was estimated from the inflection point in the titration curve from the plot between pH and volume of mL of NaOH solution.

[10] = set-up: method as in PMID 17045703; settings: cited from earlier work
[11] = set-up: method as in PMID 12563304; settings: in rats; cited from earlier work
[12] = IV 20 mg/kg, bile duct cannulated rats
[13] = IV 20 mg/kg, non-cannulated rats
[14] = IV 20 mg/kg, non-cannulated rats, up to 24 h, 20 mg/kg
[15] = oral 20 mg/kg, bile duct cannulated rats
[16] = oral 20 mg/kg, bile duct cannulated rats, up to 24 h, 20 mg/kg
[17] = oral 20 mg/kg, non-cannulated rats
[18] = oral 20 mg/kg, non-cannulated rats, up to 24 h, 20 mg/kg
[19] = Sprague Dawley, serum, rat, 20 mg/kg IV
[20] = Sprague Dawley, rat serum, 20 mg/kg oral

- % of dose recovered, urine 0–12 h [5, 12]: 16.8%
- fe (fraction excreted), urine [5, 12]: 0.90
- % of dose recovered, urine total ([5]; IV 20 mg/kg, bile duct cannulated rats, up to 24 h, 20 mg/kg): 16.8 ± 2.7% and 16.8%
- % of dose recovered, feces 0–12 h [5, 13]: 0.05%
- % of dose recovered, feces 12–24 h [5, 13]: 0.02%
- % of dose recovered, urine 0–12 h [5, 13]: 15.7%
- fe (fraction excreted), feces [5, 13]: 0.0008
- fe (fraction excreted), urine [5, 13]: 0.9
- % of dose recovered, feces total [5, 14]: 0.08 ± 0.08% and 0.08%
- % of dose recovered, urine total [5, 14]: 15.7 ± 3.3% and 15.7%
- k el ([5]; bile, po, 20 mg/kg, oral 20 mg/kg, bile duct cannulated rats, read-out: Ke (excretion rate constant), bile (converted)): 2.78e-05 s⁻¹
- k el ([5]; bile, po, 20 mg/kg, oral 20 mg/kg, bile duct cannulated rats, read-out: Kel (elimination rate constant), bile (converted)): 1.33e-05 s⁻¹
- k el ([5]; feces, iv, 20 mg/kg, IV 20 mg/kg, non-cannulated rats, read-out: Ke (excretion rate constant), feces (converted)): 4.17e-05 s⁻¹
- k el ([5]; feces, iv, 20 mg/kg, IV 20 mg/kg, non-cannulated rats, read-out: Kel (elimination rate constant), feces (converted)): 8.33e-06 s⁻¹
- k el ([5]; feces, po, 20 mg/kg, oral 20 mg/kg, non-cannulated rats, read-out: Ke (excretion rate constant), feces (converted)): 1.94e-05 s⁻¹
- k el ([5]; feces, po, 20 mg/kg, oral 20 mg/kg, non-cannulated rats, read-out: Kel (elimination rate constant), feces (converted)): 1.67e-05 s⁻¹
- k el ([5]; urine, iv, 20 mg/kg, IV 20 mg/kg, bile duct cannulated rats, read-out: Ke (excretion rate constant), urine (converted)): 1.11e-05 s⁻¹
- k el ([5]; urine, iv, 20 mg/kg, IV 20 mg/kg, bile duct cannulated rats, read-out: Kel (elimination rate constant), urine (converted)): 1.39e-05 s⁻¹
- k el ([5]; urine, iv, 20 mg/kg, IV 20 mg/kg, non-cannulated rats, read-out: Ke (excretion rate constant), urine (converted)): 2.5e-05 s⁻¹
- k el ([5]; urine, iv, 20 mg/kg, IV 20 mg/kg, non-cannulated rats, read-out: Kel (elimination rate constant), urine (converted)): 2.78e-05 s⁻¹
- k el ([5]; urine, po, 20 mg/kg, oral 20 mg/kg, bile duct cannulated rats, read-out: Ke (excretion rate constant), urine (converted)): 1.67e-05 s⁻¹
- k el ([5]; urine, po, 20 mg/kg, oral 20 mg/kg, bile duct cannulated rats, read-out: Kel (elimination rate constant), urine (converted)): 1.94e-05 s⁻¹
- k el ([5]; urine, po, 20 mg/kg, oral 20 mg/kg, non-cannulated rats, read-out: Ke (excretion rate constant), urine (converted)): 1.11e-05 s⁻¹
- k el ([5]; urine, po, 20 mg/kg, oral 20 mg/kg, non-cannulated rats, read-out: Kel (elimination rate constant), urine (converted)): 1.94e-05 s⁻¹
- Excreted in urine, % of the dose [5]: 15%
- Excreted in urine, % of the dose ([5]; listed as CDRI 85/92): ~ 15%
- % of dose recovered, bile 0–12 h [5, 15]: 0.3%
- % of dose recovered, bile 12–24 h [5, 15]: 0.08%
- % of dose recovered, urine 0–12 h [5, 15]: 1.5%
- % of dose recovered, urine 12–24 h [5, 15]: 0.2%
- fe (fraction excreted), bile [5, 15]: 0.0037
- fe (fraction excreted), urine [5, 15]: 0.83
- % of dose recovered, bile total [5, 16]: 0.37 ± 0.12% and 0.37%
- % of dose recovered, urine total [5, 16]: 1.7 ± 0.8% and 1.7%
- % of dose recovered, feces 0–12 h [5, 17]: 1.0%
- % of dose recovered, feces 12–24 h [5, 17]: 0.2%
- % of dose recovered, urine 0–12 h [5, 17]: 3.7%
- % of dose recovered, urine 12–24 h [5, 17]: 0.5%
- fe (fraction excreted), feces [5, 17]: 0.012
- % of dose recovered, feces total [5, 18]: 1.2 ± 0.6% and 1.2%
- % of dose recovered, urine total [5, 18]: 4.2 ± 1.1% and 4.2%
- Levels of the compound in bile and feces ([5]; rats, 20 mg/kg): insignificant levels
- logP [6]: 0.53 ± 0.11
- Cmax ([7]; Sprague Dawley, rat, serum, iv, 20 mg/kg, rat serum, 20 mg/kg IV, read-out: Cmax): 4910 ng/mL
- half-life ([7]; Sprague Dawley, rat, serum, iv, 20 mg/kg, rat serum, 20 mg/kg IV, read-out: Elimination t1/2 (converted)): 2 h
- Cmax ([7]; Sprague Dawley, rat, serum, po, 20 mg/kg, rat serum, 20 mg/kg oral, read-out: Cmax): 469 ± 45.5 ng/mL
- MRT [7, 19]: 1.1 h
- Vd [7, 19]: 3.7 L/kg
- clearance [7, 19]: 18.3 mL/min
- MRT ([7]; Sprague Dawley, serum, rat, 20 mg/kg oral): 3.9 h
- bioavailability ([7]; Sprague Dawley, serum, rat, 20 mg/kg oral vs IV, based on AUC): 70.5%
- AUC(0-inf) ([7]; Sprague Dawley, rat serum, 20 mg/kg IV): 1250 ng·h/mL
- AUC(0-inf) [7, 20]: 882 ng·h/mL
- Tmax [7, 20]: 1 h
- Elimination t1/2 ([7]; rat serum, 20 mg/kg IV, 20 mg/kg): 2.1 h
- Cmax ([7]; rat serum, 20 mg/kg oral, 20 mg/kg): 469.2 ng/mL
- Time up to which detected in serum ([7]; rat, 20 mg/kg IV): up to 12 h
- MAT (mean absorption time) ([7]; rat, 20 mg/kg oral, MRToral - MRTIV): 2.8 h
- Earliest time detectable in serum ([7]; rat, post oral administration 20 mg/kg): 5 min
- Solubility in formulation (Aqueous solubility; 10 and 20 mg/ml in triple distilled water): completely soluble
- Solubility in water (Aqueous solubility; water): freely soluble in water
- logP [9]: 0.55 ± 0.18
SMILES: O=C1NC(C(=O)O)/C(=C\Cc2ccccc2)O1 (stereo not drawn) [CDRI-85/92, (5E)-2-oxo-5-(2-phenylethylidene)-1,3-oxazolidine-4-carboxylic acid]
- Inhibition of proton pumps of the kidney and bone [1]: not inhibiting
- log P [2]: 0.5
- Metabolism by glutathione-S-transferases [3]: very slow metabolism
- % inhibition in the free acidity (free acidity): fairly compares with that of Omeprazole
- Inhibition of the gastric proton pump (gastric proton pump): selective and competitive inhibition
- Ka (absorption rate constant) [4]: 0.12 h⁻¹
- aqueous solubility [8]: > 500 µg/mL
- cytoprotective activity [10]: good cytoprotective activity

SMILES: COc1ccc2[nH]c([S+]([O-])Cc3ncc(C)c(OC)c3C)nc2c1 (stereo not drawn) [Omeprazole, reference compound]
- Type of proton pump inhibition (gastric proton pump): irreversible proton pump inhibitor
- half-life [11]: less than 5 min
